Results on three compounds are retold here after patent US10870647B2, “Imidazopyridine derivative, method for preparing same, and pharmaceutical composition containing same as active ingredient for preventing or treating cancer” (DAEGU-GYEONGBUK MEDICAL INNOVATION FOUNDATION, priority 2016, dated 2020).

What all share (assay): Kinase selectivity, scanMAX Kinase assay panel (DiscoverX), % control at 1 uM
Type in all cases: binding

Experiment [1] concerns the target T1, scanMAX Kinase assay panel (Homo sapiens, UniProt Q9UPE1).
T1 construct: purchased DiscoverX
Particulars: SRPK3; 1 uM; read-out: Percent Control (%). The procedure, abridged:
(§1)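 A single concentration of 1 uM, in DMSO, is applied across the kinase panel. Activity against an individual enzyme is assigned where % control is less than 35.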

Experiment [2] concerns the target T2, scanMAX Kinase assay panel (Homo sapiens, UniProt Q9BXA7).
T2 construct: purchased DiscoverX
T2 sequence (Q9BXA7 1-367): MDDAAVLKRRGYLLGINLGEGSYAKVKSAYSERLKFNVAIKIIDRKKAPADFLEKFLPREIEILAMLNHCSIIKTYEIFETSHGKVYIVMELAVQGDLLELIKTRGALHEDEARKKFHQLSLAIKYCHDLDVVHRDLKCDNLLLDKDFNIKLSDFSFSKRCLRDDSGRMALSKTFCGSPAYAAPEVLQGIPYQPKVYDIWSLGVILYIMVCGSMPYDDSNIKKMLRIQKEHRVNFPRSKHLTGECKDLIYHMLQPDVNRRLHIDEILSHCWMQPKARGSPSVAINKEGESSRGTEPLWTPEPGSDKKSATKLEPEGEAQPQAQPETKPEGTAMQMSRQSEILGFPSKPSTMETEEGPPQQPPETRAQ
The following applies: TSSK1B; 1 uM; read-out: Percent Control (%). The procedure, abridged:
as §1

Experiment [3] concerns the target T3, scanMAX Kinase assay panel (Homo sapiens, UniProt O43293).
T3 construct: purchased DiscoverX
Particulars: DAPK3; 1 uM; read-out: Percent Control (%). The procedure, abridged:
as §1

The target in experiment [4] is T4, scanMAX Kinase assay panel (Homo sapiens, UniProt Q8WTQ7).
T4 construct: purchased DiscoverX
T4 sequence (Q8WTQ7 1-553): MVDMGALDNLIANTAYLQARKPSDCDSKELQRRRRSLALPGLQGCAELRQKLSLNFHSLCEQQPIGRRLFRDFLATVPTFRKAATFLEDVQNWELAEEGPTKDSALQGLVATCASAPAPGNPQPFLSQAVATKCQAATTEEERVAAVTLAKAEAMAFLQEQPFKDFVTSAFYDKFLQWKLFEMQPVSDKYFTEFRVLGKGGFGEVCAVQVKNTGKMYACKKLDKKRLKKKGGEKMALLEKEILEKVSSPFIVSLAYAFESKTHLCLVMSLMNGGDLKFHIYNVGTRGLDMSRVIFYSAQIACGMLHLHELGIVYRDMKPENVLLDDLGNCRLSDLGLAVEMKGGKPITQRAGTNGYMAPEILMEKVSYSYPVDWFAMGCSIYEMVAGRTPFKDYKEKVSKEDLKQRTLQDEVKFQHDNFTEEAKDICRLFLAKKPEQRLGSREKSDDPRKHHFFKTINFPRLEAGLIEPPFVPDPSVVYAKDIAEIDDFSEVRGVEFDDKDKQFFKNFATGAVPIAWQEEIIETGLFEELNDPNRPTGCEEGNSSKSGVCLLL
Particulars: GRK7; 1 uM; read-out: Percent Control (%). In a few lines:
as §1

Experiment [5] concerns the target T5, scanMAX Kinase assay panel (Homo sapiens, UniProt P29323).
T5 construct: purchased DiscoverX
T5 sequence (P29323 19-1055): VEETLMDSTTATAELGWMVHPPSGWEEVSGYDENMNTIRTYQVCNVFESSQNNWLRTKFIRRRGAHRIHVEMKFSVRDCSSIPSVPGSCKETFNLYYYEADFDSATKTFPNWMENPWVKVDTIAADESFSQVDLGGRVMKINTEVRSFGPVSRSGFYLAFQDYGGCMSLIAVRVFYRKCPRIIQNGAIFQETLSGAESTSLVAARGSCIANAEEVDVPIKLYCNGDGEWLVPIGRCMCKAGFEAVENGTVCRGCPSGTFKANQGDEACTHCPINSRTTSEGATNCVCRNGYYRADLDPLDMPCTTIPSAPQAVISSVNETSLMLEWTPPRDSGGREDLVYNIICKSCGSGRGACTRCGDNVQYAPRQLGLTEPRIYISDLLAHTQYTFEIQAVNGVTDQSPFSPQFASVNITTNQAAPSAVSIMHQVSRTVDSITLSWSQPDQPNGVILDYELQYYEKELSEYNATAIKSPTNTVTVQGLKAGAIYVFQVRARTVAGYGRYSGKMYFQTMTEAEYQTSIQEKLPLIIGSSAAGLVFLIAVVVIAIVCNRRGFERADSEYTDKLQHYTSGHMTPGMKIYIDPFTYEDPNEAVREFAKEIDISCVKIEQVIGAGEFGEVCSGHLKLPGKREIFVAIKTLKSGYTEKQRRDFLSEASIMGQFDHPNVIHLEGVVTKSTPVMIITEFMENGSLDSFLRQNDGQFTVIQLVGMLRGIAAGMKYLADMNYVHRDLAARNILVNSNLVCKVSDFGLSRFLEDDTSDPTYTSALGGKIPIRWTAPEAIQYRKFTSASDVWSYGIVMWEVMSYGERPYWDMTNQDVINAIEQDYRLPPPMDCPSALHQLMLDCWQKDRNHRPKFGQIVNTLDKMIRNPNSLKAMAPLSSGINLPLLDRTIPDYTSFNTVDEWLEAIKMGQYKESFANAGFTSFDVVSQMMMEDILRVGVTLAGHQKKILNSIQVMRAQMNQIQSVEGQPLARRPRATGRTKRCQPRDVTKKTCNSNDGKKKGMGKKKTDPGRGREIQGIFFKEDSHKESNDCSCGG
The following applies: EPHB2; 1 uM; read-out: Percent Control (%). The procedure, abridged: as §1

Experiment [6] concerns the target T6, scanMAX Kinase assay panel (Homo sapiens, UniProt P42336, M1043I).
T6 construct: purchased DiscoverX
Particulars: PIK3CA (M1043I); 1 uM; read-out: Percent Control (%). The procedure, abridged: as §1

Experiment [7] has as its target T7, scanMAX Kinase assay panel (Homo sapiens, UniProt P42345).
T7 construct: purchased DiscoverX
Particulars: MTOR; 1 uM; read-out: Percent Control (%). In a few lines:
as §1

Experiment [8] deals with T8, scanMAX Kinase assay panel (Homo sapiens, UniProt Q8N568).
T8 construct: purchased DiscoverX
The following applies: DCAMKL2; 1 uM; read-out: Percent Control (%). The procedure, abridged: as §1

For experiment [9], the target named is T9, scanMAX Kinase assay panel (Homo sapiens, UniProt P08922).
T9 construct: purchased DiscoverX
T9 sequence (P08922 28-2347): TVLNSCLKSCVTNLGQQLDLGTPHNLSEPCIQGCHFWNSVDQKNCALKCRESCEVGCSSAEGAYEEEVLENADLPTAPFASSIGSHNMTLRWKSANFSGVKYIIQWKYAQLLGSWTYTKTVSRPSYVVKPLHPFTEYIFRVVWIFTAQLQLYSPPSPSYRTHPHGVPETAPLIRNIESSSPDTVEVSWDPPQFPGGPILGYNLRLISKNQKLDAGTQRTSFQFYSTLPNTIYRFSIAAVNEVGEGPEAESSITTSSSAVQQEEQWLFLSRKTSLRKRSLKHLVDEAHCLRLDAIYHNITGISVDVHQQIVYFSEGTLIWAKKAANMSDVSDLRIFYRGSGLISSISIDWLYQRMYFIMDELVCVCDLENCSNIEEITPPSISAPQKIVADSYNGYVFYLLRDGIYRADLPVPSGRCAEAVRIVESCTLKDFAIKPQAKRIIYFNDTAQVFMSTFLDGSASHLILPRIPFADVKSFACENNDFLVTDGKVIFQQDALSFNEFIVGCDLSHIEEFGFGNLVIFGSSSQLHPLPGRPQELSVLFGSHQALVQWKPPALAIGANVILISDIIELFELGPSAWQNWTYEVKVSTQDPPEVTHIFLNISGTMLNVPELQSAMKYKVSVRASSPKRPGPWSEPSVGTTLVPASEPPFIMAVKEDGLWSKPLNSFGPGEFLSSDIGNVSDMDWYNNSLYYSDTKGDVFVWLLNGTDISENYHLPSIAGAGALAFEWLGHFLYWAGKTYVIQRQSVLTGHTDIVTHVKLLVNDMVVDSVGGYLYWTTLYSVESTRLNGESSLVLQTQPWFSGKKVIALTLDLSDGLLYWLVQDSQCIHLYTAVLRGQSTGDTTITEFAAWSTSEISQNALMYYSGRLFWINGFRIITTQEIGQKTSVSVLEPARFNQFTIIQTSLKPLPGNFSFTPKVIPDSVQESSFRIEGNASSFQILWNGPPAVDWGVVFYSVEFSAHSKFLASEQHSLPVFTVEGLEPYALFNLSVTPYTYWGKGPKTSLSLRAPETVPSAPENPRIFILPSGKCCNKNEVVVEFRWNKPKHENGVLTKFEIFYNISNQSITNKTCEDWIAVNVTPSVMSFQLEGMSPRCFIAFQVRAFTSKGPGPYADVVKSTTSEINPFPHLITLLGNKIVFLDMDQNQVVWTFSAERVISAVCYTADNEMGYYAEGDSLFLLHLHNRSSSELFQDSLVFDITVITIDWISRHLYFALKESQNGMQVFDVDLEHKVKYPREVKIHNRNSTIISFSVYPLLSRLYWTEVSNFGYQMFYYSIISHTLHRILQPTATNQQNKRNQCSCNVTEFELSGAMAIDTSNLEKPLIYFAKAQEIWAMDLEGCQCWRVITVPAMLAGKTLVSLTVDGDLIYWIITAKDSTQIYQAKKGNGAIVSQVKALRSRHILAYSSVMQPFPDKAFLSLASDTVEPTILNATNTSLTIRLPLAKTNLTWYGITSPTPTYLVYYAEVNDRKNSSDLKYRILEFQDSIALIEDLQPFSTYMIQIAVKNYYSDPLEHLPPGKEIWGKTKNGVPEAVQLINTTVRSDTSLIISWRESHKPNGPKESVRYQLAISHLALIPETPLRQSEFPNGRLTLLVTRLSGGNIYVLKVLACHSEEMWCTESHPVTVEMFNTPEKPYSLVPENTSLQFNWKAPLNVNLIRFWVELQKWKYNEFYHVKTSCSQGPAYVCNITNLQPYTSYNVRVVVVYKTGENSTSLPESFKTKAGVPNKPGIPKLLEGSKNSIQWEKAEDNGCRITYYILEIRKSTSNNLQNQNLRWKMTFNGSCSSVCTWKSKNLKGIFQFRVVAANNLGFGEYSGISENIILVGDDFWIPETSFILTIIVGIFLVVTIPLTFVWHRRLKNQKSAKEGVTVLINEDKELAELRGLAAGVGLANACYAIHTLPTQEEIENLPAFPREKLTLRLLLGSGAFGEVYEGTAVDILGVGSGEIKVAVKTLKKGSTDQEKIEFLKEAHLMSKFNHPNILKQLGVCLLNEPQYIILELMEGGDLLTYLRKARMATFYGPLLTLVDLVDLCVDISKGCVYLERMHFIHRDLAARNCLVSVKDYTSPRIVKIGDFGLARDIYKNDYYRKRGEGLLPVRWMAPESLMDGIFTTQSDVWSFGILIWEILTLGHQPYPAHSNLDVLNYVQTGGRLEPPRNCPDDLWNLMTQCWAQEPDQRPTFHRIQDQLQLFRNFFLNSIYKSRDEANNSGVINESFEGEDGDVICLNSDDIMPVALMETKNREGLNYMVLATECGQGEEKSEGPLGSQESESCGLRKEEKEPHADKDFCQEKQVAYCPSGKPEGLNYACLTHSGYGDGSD
Particulars: ROS1; 1 uM; read-out: Percent Control (%). In a few lines: as §1

Experiment [10] deals with T10, scanMAX Kinase assay panel (Homo sapiens, UniProt Q9UM73).
T10 construct: purchased DiscoverX
The following applies: ALK; 1 uM; read-out: Percent Control (%). In a few lines:
as §1

T3 sequence (O43293 whole entry): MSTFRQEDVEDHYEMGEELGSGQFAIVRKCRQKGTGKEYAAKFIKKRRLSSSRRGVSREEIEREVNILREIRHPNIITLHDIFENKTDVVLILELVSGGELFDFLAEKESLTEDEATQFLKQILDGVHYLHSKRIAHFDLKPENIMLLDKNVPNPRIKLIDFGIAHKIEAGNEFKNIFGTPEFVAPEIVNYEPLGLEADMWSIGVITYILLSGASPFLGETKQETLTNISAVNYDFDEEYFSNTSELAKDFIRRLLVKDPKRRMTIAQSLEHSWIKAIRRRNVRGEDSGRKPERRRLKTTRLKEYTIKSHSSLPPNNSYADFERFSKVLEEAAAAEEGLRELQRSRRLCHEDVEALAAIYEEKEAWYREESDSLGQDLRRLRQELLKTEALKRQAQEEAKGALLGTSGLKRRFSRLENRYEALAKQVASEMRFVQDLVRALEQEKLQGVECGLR
T1 sequence (Q9UPE1 whole entry): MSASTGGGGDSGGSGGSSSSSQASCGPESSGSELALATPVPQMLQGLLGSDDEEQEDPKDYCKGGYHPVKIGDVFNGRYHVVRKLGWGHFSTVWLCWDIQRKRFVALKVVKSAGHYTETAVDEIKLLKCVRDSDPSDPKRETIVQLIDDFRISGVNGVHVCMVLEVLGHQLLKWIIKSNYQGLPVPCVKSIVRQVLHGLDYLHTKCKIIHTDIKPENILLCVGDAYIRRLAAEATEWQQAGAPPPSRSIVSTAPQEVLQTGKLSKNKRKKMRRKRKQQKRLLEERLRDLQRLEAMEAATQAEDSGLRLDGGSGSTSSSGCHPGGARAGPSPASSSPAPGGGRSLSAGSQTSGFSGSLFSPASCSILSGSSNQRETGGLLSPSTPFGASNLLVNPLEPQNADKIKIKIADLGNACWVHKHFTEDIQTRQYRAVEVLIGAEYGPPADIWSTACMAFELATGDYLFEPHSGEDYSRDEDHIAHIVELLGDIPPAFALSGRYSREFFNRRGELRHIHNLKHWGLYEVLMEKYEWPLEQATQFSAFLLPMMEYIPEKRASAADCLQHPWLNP
T6 sequence (P42336 whole entry M1043I): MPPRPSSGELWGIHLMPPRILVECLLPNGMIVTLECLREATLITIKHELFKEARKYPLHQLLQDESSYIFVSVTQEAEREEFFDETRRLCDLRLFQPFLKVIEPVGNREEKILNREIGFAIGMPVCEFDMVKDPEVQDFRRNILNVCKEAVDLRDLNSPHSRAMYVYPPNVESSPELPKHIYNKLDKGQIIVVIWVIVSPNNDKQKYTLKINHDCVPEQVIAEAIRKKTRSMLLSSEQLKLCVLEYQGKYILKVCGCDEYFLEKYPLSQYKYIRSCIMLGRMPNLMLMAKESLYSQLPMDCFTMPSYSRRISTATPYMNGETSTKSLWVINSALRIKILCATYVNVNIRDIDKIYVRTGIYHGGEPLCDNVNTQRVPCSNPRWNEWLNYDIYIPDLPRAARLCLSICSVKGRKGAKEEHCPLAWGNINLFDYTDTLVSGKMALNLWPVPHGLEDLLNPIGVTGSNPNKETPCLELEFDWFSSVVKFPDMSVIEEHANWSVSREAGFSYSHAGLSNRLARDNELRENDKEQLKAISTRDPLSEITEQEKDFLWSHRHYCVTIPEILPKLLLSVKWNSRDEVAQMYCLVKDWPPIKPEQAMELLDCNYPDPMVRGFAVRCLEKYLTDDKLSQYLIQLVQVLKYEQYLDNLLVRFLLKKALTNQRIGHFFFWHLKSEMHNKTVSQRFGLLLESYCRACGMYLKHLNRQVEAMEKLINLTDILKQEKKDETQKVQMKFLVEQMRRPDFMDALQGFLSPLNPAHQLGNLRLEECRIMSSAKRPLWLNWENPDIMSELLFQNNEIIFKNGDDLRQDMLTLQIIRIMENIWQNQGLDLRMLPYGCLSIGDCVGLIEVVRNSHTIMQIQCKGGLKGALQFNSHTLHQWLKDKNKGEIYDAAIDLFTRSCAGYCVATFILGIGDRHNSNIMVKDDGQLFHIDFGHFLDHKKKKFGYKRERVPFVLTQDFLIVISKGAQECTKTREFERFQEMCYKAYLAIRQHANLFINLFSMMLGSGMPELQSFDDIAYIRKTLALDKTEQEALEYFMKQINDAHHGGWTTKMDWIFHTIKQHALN

For the compound `Cc1ccc(C(=O)Nc2ccc(CN3CCN(C)CC3)c(C(F)(F)F)c2)cc1C#Cc1cnc2c(Nc3cnn(C)c3)cccn12` [Example 1, 4-methyl-3-((8-((1-methyl-1H-pyrazol-4-yl)amino)imidazo[1,2-a]pyridin-3-yl)ethynyl)-N-(4-((4-methylpiperazin-1-yl)methyl)-3-(trifluoromethyl)phenyl)benzamide], the remaining binding at 1 µM stood at 82% in [1]; 95% in experiment [2]; 68% in experiment [3]; 81% in [4]; 0% in experiment [5]; 90% in experiment [6]. Moreover, the remaining binding at 1 µM in experiment [7] worked out at 77%; in [8], 91%; in [9] it was 39%; in experiment [10] it was 70%.

Consider `Cc1cn(-c2cc(NC(=O)c3ccc(C)c(C#Cc4cnc5c(Nc6cnn(C)c6)cccn45)c3)cc(C(F)(F)F)c2)cn1` [Example 12, 4-methyl-N-(3-(4-methyl-1H-imidazol-1-yl)-5-(trifluoromethyl)phenyl)-3-((8-((1-methyl-1H-pyrazol-4-yl)amino)imidazo[1,2-a]pyridin-3-yl)ethynyl)benzamide], for which the remaining binding at 1 µM in experiment [1] worked out at 100%; in experiment [2], 61%; in experiment [3], 100%; in experiment [4], 100%; in experiment [5], 27%; in experiment [6], 100%. The remaining binding at 1 µM was 66% in experiment [7], 78% in experiment [8], 51% in experiment [9] and 100% in [10].

For the compound `Cc1ccc(NC(=O)C2(C(=O)Nc3ccc(F)cc3)CC2)cc1C#Cc1cnc2c(Nc3cnn(C(C)C)c3)cccn12` [Example 78], the remaining binding at 1 µM came to 100% in [1]; 100% in [2]; 100% in [3]; 92% in [4]; 98% in experiment [5]; 100% in experiment [6]. The remaining binding at 1 µM was determined as 91% in experiment [7], 100% in experiment [8], 92% in [9] and 100% in experiment [10].
